The test system of data set [1] is Salsola kali (Russian thistle, SASKR). Put plainly: Greenhouse postemergence trial SASKR.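 For all read-outs here: greenhouse plants sprayed at second or third true leaf stage, injury rated by eye after 20-22 d against solvent-blank controls, 0 meaning no injury, 100 complete kill.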 In kind it is in vivo. As to conditions: SASKR; for % visual injury, Obs: applied alone.
Procedure: (§1) The plants were grown for 7-36 days (d) in a greenhouse with an approximate 14-hour (h) photo-period which was maintained at about 23° C. during the day and 22° C. during the night. Nutrients and water were added on a regular basis and supplemental lighting was provided with overhead metal halide 1000-Watt lamps as necessary. The plants were employed for testing when they reached the second or third true leaf stage.
(§2) The emulsifiable concentrates also included a safener, cloquintocet-mexyl, at 120 grams active ingredient per liter (g ai/L), unless otherwise noted below.
(§3) Control plants were sprayed in the same manner with the solvent blank. All pyridine carboxylate herbicide (component a) application rates are given as “g ae/ha” and all synthetic auxin herbicide or auxin transport inhibitor (component b) application rates are given as “g ai/ha.”
(§4) The treated plants and control plants were placed in a greenhouse as described above and watered by sub-irrigation to prevent wash-off of the test compounds. After 20-22 d, the condition of the test plants as compared with that of the control plants was determined visually and scored on a scale of 0 to 100 percent where 0 corresponds to no injury and 100 corresponds to complete kill.
Data set [2] relates to Brassica napus (winter rape, BRSNW). The data set can be described thus: Greenhouse postemergence trial BRSNW. In kind it is in vivo.
In data set [3] the test system is Cyanus segetum (cornflower, CENCY). The data set can be described thus: Greenhouse postemergence trial CENCY. In kind it is in vivo. Conditions: CENCY.
The subject of data set [4] is Capsella bursa-pastoris (shepherd's purse, CAPBP). Put plainly: Greenhouse postemergence trial CAPBP. In kind it is in vivo. Conditions: CAPBP.
The subject of data set [5] is Matricaria chamomilla (wild chamomile, MATCH). Put plainly: Greenhouse postemergence trial MATCH.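 For all read-outs here: greenhouse plants sprayed at second to third true leaf stage, injury rated by eye 20-22 d later versus solvent-blank controls on 0–100 scale, 0 no injury, 100 complete kill.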 In kind it is in vivo. Conditions: MATCH; for % visual injury, Obs: applied alone.
Procedure: as §1, §2, §3, §4
Data set [6] concerns Viola tricolor (wild pansy, VIOTR). Put plainly: Greenhouse postemergence trial VIOTR.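 Note: greenhouse plants sprayed at second to third true leaf stage, injury rated visually after 20-22 d against solvent-blank sprayed controls, 0 meaning no injury and 100 complete kill.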
Procedure: (§5) Seeds of the desired test plant species were planted in a 90:10% v/v (volume/volume) mixture of PRO-MIX® BX (Premier Tech Horticulture, Quakertown, PA, USA) and PROFILE® GREENS GRADE™ (Profile Products LLC, Buffalo Grove, IL, USA) planting mixture, which typically has a pH of 5.2 to 6.2 and an organic matter content of at least 50 percent, in plastic pots with a surface area of 103.2 square centimeters (cm^2). […] The plants were grown for 7-36 days (d) in a greenhouse with an approximate 14-hour (h) photo-period which was maintained at about 23° C. during the day and 22° C. during the night. Nutrients and water were added on a regular basis and supplemental lighting was provided with overhead metal halide 1000-Watt lamps as necessary. The plants were employed for testing when they reached the second or third true leaf stage.
(§6) Emulsifiable concentrates of each of each pyridine carboxylate herbicide (Compound A or Compound B) were prepared at 100 grams acid equivalent per liter (g ae/L). The emulsifiable concentrates also included a safener, cloquintocet-mexyl, at 120 grams active ingredient per liter (g ai/L), unless otherwise noted below. An aliquot of each emulsifiable concentrate was placed in a 25 mL glass vial and diluted with an aqueous mixture of 1.25% (v/v) ACTIROB® B esterified rapeseed oil (Bayer Crop Science, Research Triangle Park, NC, USA) or MSO® Concentrate with LECI-TECH® methylated soybean oil (Loveland Products, Loveland, CO, USA) to obtain concentrated stock solutions at the highest application rate for each herbicide, based upon a 12 milliliter (mL) application volume at a rate of 187 liters per hectare (L/ha). The concentrated stock solutions were further diluted with an aqueous mixture of 1.25% v/v ACTIROB® B or MSO® Concentrate with LECI-TECH® to obtain stock solutions at reduced application rates for each herbicide. Spray solutions of the herbicide combinations (Compound A or Compound B plus synthetic auxin herbicide or auxin transport inhibitor) were prepared by adding weighed amounts or aliquots of the synthetic auxin herbicide or auxin transport inhibitor to the stock solutions of Compound A or Compound B to form 12-mL spray solutions in two-way combinations.
(§7) The spray solutions were applied to the plant material with an overhead Mandel track sprayer equipped with 8002E nozzles calibrated to deliver 187 L/ha over an application area of 0.503 square meters (m^2) at a spray height of 18 inches (43 centimeters (cm)) above the average plant canopy. Control plants were sprayed in the same manner with the solvent blank. All pyridine carboxylate herbicide (component a) application rates are given as “g ae/ha” and all synthetic auxin herbicide or auxin transport inhibitor (component b) application rates are given as “g ai/ha.”
as §4
Data set [7] has as its system Polygonum convolvulus (wild buckwheat, POLCO). Put plainly: Greenhouse postemergence trial POLCO. In kind it is in vivo. Conditions: POLCO; for % visual injury, Obs: applied alone.
The subject of data set [8] is Matricaria discoidea (pineapple weed, MATMT). Put plainly: Greenhouse postemergence trial MATMT. In kind it is in vivo.
Procedure: as §5, §6, §7, §4
The test system of data set [9] is Matricaria inodora (false chamomile, MATIN). The data set can be described thus: Greenhouse postemergence trial MATIN. As to conditions: MATIN. In kind it is in vivo.
Procedure: as §5, §6, §7, §4
The subject of data set [10] is Lamium purpureum (purple deadnettle, LAMPU). Put plainly: Greenhouse postemergence trial LAMPU.
Data set [11] has as its system Anthemis arvensis (field chamomile, ANTAR). Put plainly: Greenhouse postemergence trial ANTAR. Conditions: ANTAR. In kind it is in vivo.
Data set [12] has as its system Cirsium arvense (Canadian thistle, CIRAR). The data set can be described thus: Greenhouse postemergence trial CIRAR. As to conditions: for % visual injury, Obs: applied alone. In kind it is in vivo.
Procedure: as §5, §6, §7, §4
Data set [13] concerns Papaver rhoeas (corn poppy, PAPRH). Put plainly: Greenhouse postemergence trial PAPRH. In kind it is in vivo. Conditions: PAPRH.
Procedure: as §5, §6, §7, §4
Data set [14] has as its system Papaver rhoeas (corn poppy), herbicide-resistant (PAPRH-R). The data set can be described thus: Greenhouse postemergence trial PAPRH-R. In kind it is in vivo.
The test system of data set [15] is Sinapis arvensis (wild mustard, SINAR). The data set can be described thus: Greenhouse postemergence trial SINAR. In kind it is in vivo. Conditions: SINAR; for % visual injury, Obs: applied alone.
The test system of data set [16] is Veronica persica (bird's-eye speedwell, VERPE). Put plainly: Greenhouse postemergence trial VERPE. In kind it is in vivo.
Data set [17] has as its system Veronica hederifolia (ivyleaf speedwell, VERHE). Put plainly: Greenhouse postemergence trial VERHE. As to conditions: VERHE. In kind it is in vivo.
Procedure: as §5, §6, §7, §4
Data set [18] relates to Stellaria media (chickweed, STEME). Put plainly: Greenhouse postemergence trial STEME. As to conditions: STEME. In kind it is in vivo.
The test system of data set [19] is Kochia scoparia (kochia, KCHSC). The data set can be described thus: Greenhouse postemergence trial KCHSC. In kind it is in vivo. As to conditions: KCHSC; for % visual injury, Obs: applied alone.
In data set [20] the test system is Viola arvensis (field violet, VIOAR). Put plainly: Greenhouse postemergence trial VIOAR. Conditions: VIOAR. In kind it is in vivo.
Procedure: as §5, §6, §7, §4
The test system of data set [21] is Chenopodium album L. (common lambsquarters, CHEAL). The data set can be described thus: Greenhouse postemergence trial CHEAL.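 Note: greenhouse plants sprayed at second to third true leaf stage, injury rated by eye after 20-22 d versus solvent-blank sprayed controls, 0 = no injury, 100 = complete kill.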 In kind it is in vivo.
Data set [22] deals with Amaranthus retroflexus (pigweed, AMARE). Put plainly: Greenhouse postemergence trial AMARE.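 Note: Greenhouse-grown plants sprayed at second to third true leaf stage, injury rated by eye after 20-22 d versus solvent-blank sprayed controls, 0 = no injury, 100 = complete kill.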 In kind it is in vivo.
In data set [23] the test system is Triticum aestivum (spring wheat, TRZAS). In kind it is in vivo.
Data set [24] relates to Hordeum vulgare (spring barley, HORVS). In kind it is in vivo.
The test system of data set [25] is Triticum aestivum (winter wheat, TRZAW). Put plainly: Greenhouse postemergence crop phytotoxicity TRZAW. In kind it is in vivo. Conditions: TRZAW; partner herbicide 560 g/ha alone.
Data set [26] relates to Hordeum vulgare (winter barley, HORVW). Put plainly: Greenhouse postemergence crop phytotoxicity HORVW. Conditions: HORVW; partner herbicide 560 g/ha alone. In kind it is in vivo.
Where [27] appears, read: partner herbicide 560 g/ha alone.

Molecules are shown by their SMILES.

As for `CC(Oc1ccc(Cl)cc1Cl)C(=O)O` (stereo not drawn) [Dichlorprop], the “% visual injury, Obs” value in data set [1] (560 g/ha) is on record as 70%; in data set [3] (applied alone, 560 g/ha), 100%; in [4] (applied alone, 560 g/ha), 70%; in [5] (560 g/ha), 50%; in [6] (VIOTR, applied alone, 560 g/ha), 85%; in data set [7] (560 g/ha), 95%. Besides, the “% visual injury, Obs” value in data set [8] (MATMT, applied alone, 560 g/ha) worked out at 10%; in data set [9] (applied alone, 560 g/ha), 60%; in [10] (LAMPU, applied alone, 560 g/ha), 30%; in [11] (applied alone, 560 g/ha) it was 95%; in [12] (CIRAR, 560 g/ha), 75%; in data set [13] (applied alone, 560 g/ha), 65%. For the same molecule, the “% visual injury, Obs” value in data set [14] (PAPRH-R, applied alone, 560 g/ha) is on record as 30%; in data set [15] (560 g/ha) it was 100%; in [16] (VERPE, applied alone, 560 g/ha) it was 30%; in data set [17] (applied alone, 560 g/ha) it was 60%; in data set [18] (applied alone, 560 g/ha), 30%; in data set [19] (560 g/ha), 75%. In addition, the “% visual injury, Obs” value in data set [20] (applied alone, 560 g/ha) stood at 25%. Moreover, the plant injury at 560 g/ha in data set [2] (Brassica napus, post-emergence, BRSNW, applied alone, 560 g/ha, read-out: % visual injury, Obs) came to 75%.
In the case of `Nc1c(Cl)c(F)nc(OCC(=O)O)c1Cl` [Fluroxypyr], the pest or weed control was found to be 60% in data set [1] (Salsola kali, post-emergence, Fluroxypyr 200 g/ha, read-out: % visual injury Obs); 100% in data set [3] (Centaurea cyanus, post-emergence, Fluroxypyr 200 g/ha, read-out: % visual injury Obs); 10% in data set [4] (Capsella bursa-pastoris, post-emergence, Fluroxypyr 200 g/ha, read-out: % visual injury Obs); 10% in data set [5] (Matricaria chamomilla, post-emergence, Fluroxypyr 200 g/ha, read-out: % visual injury Obs); 50% in [7] (Fallopia convolvulus, post-emergence, Fluroxypyr 200 g/ha, read-out: % visual injury Obs); 0% in data set [8] (Matricaria discoidea, post-emergence, MATMT, Fluroxypyr 200 g/ha, read-out: % visual injury Obs). Besides, the pest or weed control in [9] (Tripleurospermum inodorum, post-emergence, Fluroxypyr 200 g/ha, read-out: % visual injury Obs) came to 65%; in data set [11] (Anthemis arvensis, post-emergence, Fluroxypyr 200 g/ha, read-out: % visual injury Obs) it was 60%; in data set [12] (Cirsium arvense, post-emergence, CIRAR, Fluroxypyr 200 g/ha, read-out: % visual injury Obs), 10%; in data set [13] (Papaver rhoeas, post-emergence, Fluroxypyr 200 g/ha, read-out: % visual injury Obs) it was 0%; in data set [14] (Papaver rhoeas, post-emergence, PAPRH-R, Fluroxypyr 200 g/ha, read-out: % visual injury Obs), 10%; in data set [15] (Mutarda arvensis, post-emergence, Fluroxypyr 200 g/ha, read-out: % visual injury Obs), 90%. For the same molecule, the pest or weed control in data set [16] (Veronica persica, post-emergence, VERVE, Fluroxypyr 200 g/ha, read-out: % visual injury Obs) amounted to 60%; in [17] (Veronica hederifolia, post-emergence, Fluroxypyr 200 g/ha, read-out: % visual injury Obs), 10%; in [18] (Stellaria media, post-emergence, Fluroxypyr 200 g/ha, read-out: % visual injury Obs), 95%; in data set [19] (Bassia scoparia, post-emergence, Fluroxypyr 200 g/ha, read-out: % visual injury Obs), 70%; in data set [20] (Viola arvensis, post-emergence, Fluroxypyr 200 g/ha, read-out: % visual injury Obs), 10%. In addition, the plant injury in data set [2] (Brassica napus, post-emergence, BRSNW, Fluroxypyr 200 g/ha, read-out: % visual injury Obs) turned out to be 30%. For the same molecule, the pest or weed control at 200 g/ha amounted to 65% in [6] (Viola tricolor, post-emergence, read-out: % visual injury Obs) and 65% in [10] (Lamium purpureum, post-emergence, read-out: % visual injury Obs). In addition, the “MATMT % visual injury Obs” value in [8] (Fluroxypyr 70 g/ha (Table 38)) and in [8] (Fluroxypyr 100 g/ha (Table 38)) was 10% throughout. Moreover, the “PAPRH-R % visual injury Obs” value in data set [14] (Fluroxypyr 70 g/ha (Table 38)) and in [14] (Fluroxypyr 100 g/ha (Table 38)) was 25% in each case.
As to `COC(=O)c1nc(-c2ccc(Cl)c(OC)c2F)cc(N)c1Cl` [Halatvcifen-methyl], the “% visual injury, Obs” value in data set [1] (3 g/ha) was determined as 73%; in data set [2] (BRSNW, applied alone, 3 g/ha), 15%; in data set [5] (3 g/ha), 5%; in data set [7] (3 g/ha), 20%; in [21] (CHEAL, applied alone, 3 g/ha) it was 83%; in [22] (AMARE, applied alone, 3 g/ha) it was 68%. Also, the “% visual injury, Obs” value in [12] (CIRAR, 3 g/ha) was 10%; in [15] (3 g/ha), 40%; in data set [23] (TRZAS, applied alone, 3 g/ha) it was 0%; in data set [19] (3 g/ha), 40%; in [24] (HORVS, applied alone, 3 g/ha), 0%.
As to `Cc1cc(Cl)ccc1OCC(=O)O` [MCPA-DMA, MCPA-dimethylammonium, reference compound], in [2] (MCPA-DMA 400 g/ha (Table 37)), the “BRSNW % visual injury Obs” value came to 83%. Further, the “% visual injury” value came to 75% in [21] (in vivo) and 63% in data set [22] (in vivo). In addition, in data set [12] (in vivo), the “CIRAR % visual injury Obs” value came out at 60%. The “% visual injury (crop phytotoxicity)” value in data set [23] (Triticum aestivum (spring wheat, TRZAS), in vivo) is recorded as 0%; in data set [24] (Hordeum vulgare (spring barley, HORVS), in vivo), 0%. Further, the “TRZAS % visual injury Obs” value in data set [23] (in vivo) stood at 0%. Moreover, the “HORVS % visual injury Obs” value in data set [24] (in vivo) amounted to 0%.
Regarding `Cc1cc(Cl)ccc1OCC(=O)O` [MCPA], the “visual injury, Obs” value in data set [25] stood at 0%; in data set [1] (setting [27]), 30%; in [2] (BRSNW, partner herbicide 560 g/ha alone), 90%; in [3] (setting [27]), 95%; in [4] (setting [27]) it was 60%; in [5] (setting [27]), 30%. Further, the “visual injury, Obs” value in [6] (VIOTR, partner herbicide 560 g/ha alone) was determined as 60%; in data set [7] (setting [27]), 30%; in [8] (MATMT, partner herbicide 560 g/ha alone), 5%; in data set [9] (setting [27]) it was 50%; in [10] (LAMPU, partner herbicide 560 g/ha alone), 10%; in [11] (setting [27]) it was 60%. Moreover, the “visual injury, Obs” value in data set [12] (CIRAR, partner herbicide 560 g/ha alone) is recorded as 65%; in [13] (setting [27]), 95%; in [14] (PAPRH-R, partner herbicide 560 g/ha alone), 60%; in data set [15] (setting [27]), 100%; in data set [23] (TRZAS, partner herbicide 560 g/ha alone), 0%; in [16] (VERPE, partner herbicide 560 g/ha alone), 60%. In addition, the “visual injury, Obs” value in data set [17] (setting [27]) is 65%; in [18] (setting [27]) it was 50%; in data set [19] (setting [27]), 30%; in [20] (setting [27]), 20%; in [24] (HORVS, partner herbicide 560 g/ha alone), 0%; in data set [26] it was 0%.

(Values after patent US12568967B2, “Compositions comprising pyridine carboxylate herbicides with synthetic auxin herbicides or auxin transport inhibitors” (priority 2018, dated 2026).)
